Our source for the T/C values is PubChem BioAssay AID342 (DTP/NCI, 2004).

This experiment relates to Swiss mice, Sarcoma 180 sc, mean tumor weight T/C. The experiment is described as follows: NCI In Vivo Anticancer Drug Screen. Data for tumor model Sarcoma 180 (subcutaneous) in Swiss mice. The settings on record: endpoint: mean tumor weight, higher = larger tumour. In short, it runs like this:
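Tumor-bearing mice, transplantable tumor; readout survival or tumor size; result = T/C, treated vs vehicle control.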

Where [1] appears, read: dose: 15.0 mg/kg/injection, schedule: Q#A X014 (ip), vehicle: methylcellulose (MC).
[2] abbreviates: dose: 125.0 mg/kg/injection, schedule: Q01DX007 (ip), vehicle: carboxymethylcellulose (CMC).
Setting [3] is: dose: 250.0 mg/kg/injection, schedule: Q01DX007 (ip), vehicle: carboxymethylcellulose (CMC).

Several values for one entry are separate records, joined by “and”; a condition that tells them apart may be missing. Identical values can stand only once.

As a reminder, the T/C is the ratio of treated to control. As to `S=P(N1CCCCCC1)(N1CC1)N1CC1`, the T/C was 90 % of control (dose: 6.0 mg/kg/injection, schedule: Q01DX007 (ip), vehicle: carboxymethylcellulose (CMC)); 52 % of control (dose: 6.5 mg/kg/injection, schedule: Q#A X014 (ip), vehicle: methylcellulose (MC)); 60 % of control (dose: 9.0 mg/kg/injection, schedule: Q01DX007 (ip), vehicle: carboxymethylcellulose (CMC)); 60 % of control (dose: 10.0 mg/kg/injection, schedule: Q#A X014 (ip), vehicle: methylcellulose (MC)); 74 % of control (dose: 13.0 mg/kg/injection, schedule: Q01DX007 (ip), vehicle: carboxymethylcellulose (CMC)); 53 % of control under setting [1]. The T/C is, setting by setting: (dose: 20.0 mg/kg/injection, schedule: Q01DX007 (ip), vehicle: carboxymethylcellulose (CMC)) 62 % of control; (dose: 22.5 mg/kg/injection, schedule: Q#A X014 (ip), vehicle: methylcellulose (MC)) 23 % of control; (dose: 29.0 mg/kg/injection, schedule: Q01DX007 (ip), vehicle: carboxymethylcellulose (CMC)) 89 % of control; (dose: 45.0 mg/kg/injection, schedule: Q01DX007 (ip), vehicle: carboxymethylcellulose (CMC)) 57 % of control; (dose: 45.0 mg/kg/injection, schedule: Q01DX007 (ip), vehicle: saline) 25 % of control; (dose: 67.0 mg/kg/injection, schedule: Q01DX007 (ip), vehicle: carboxymethylcellulose (CMC)) 38 % of control. The T/C (dose: 90.0 mg/kg/injection, schedule: Q01DX007 (ip), vehicle: saline) is 12 % of control.
Turning to `CC(=O)OCC(=O)[C@@]1(O)CC[C@H]2[C@@H]3CCC4=CC(=O)CC[C@]4(C)[C@H]3[C@@H](O)C[C@@]21C`, the T/C was 70 % of control (dose: 12.5 mg/kg/injection, schedule: Q#A X014 (ip), vehicle: steriod suspending solution); 88 % of control (dose: 25.0 mg/kg/injection, schedule: Q#A X014 (ip), vehicle: steriod suspending solution); 57 % of control (dose: 50.0 mg/kg/injection, schedule: Q#A X014 (ip), vehicle: steriod suspending solution).
Consider `Cc1cc2nc3c(=O)[nH]c(=O)nc-3n(CC(O)C(O)C(O)C(O)CO)c2cc1C` (stereo not drawn), for which the T/C by setting is: (dose: 31.25 mg/kg/injection, schedule: Q01DX007 (ip), vehicle: carboxymethylcellulose (CMC)) 87 % of control; (dose: 38.25 mg/kg/injection, schedule: Q01DX007 (ip), vehicle: carboxymethylcellulose (CMC)) 54 % of control; (dose: 62.5 mg/kg/injection, schedule: Q01DX007 (ip), vehicle: carboxymethylcellulose (CMC)) 66 % of control; (dose: 76.5 mg/kg/injection, schedule: Q01DX007 (ip), vehicle: carboxymethylcellulose (CMC)) 48 % of control; under setting [2], 83 % of control; (dose: 153.0 mg/kg/injection, schedule: Q01DX007 (ip), vehicle: carboxymethylcellulose (CMC)) 63 % of control. Moreover, the T/C under setting [3] is 60 % of control and the T/C (dose: 306.0 mg/kg/injection, schedule: Q01DX007 (ip), vehicle: carboxymethylcellulose (CMC)) was 57 % of control.
In the case of `O=CNC(Cc1cccc(N(CCCl)CCCl)c1)C(=O)O` (stereo not drawn), the T/C is 45 % of control (dose: 2.5 mg/kg/injection, schedule: Q#A X014 (ip), vehicle: methylcellulose (MC)); 21 % of control and 25 % of control (dose: 4.5 mg/kg/injection, schedule: Q#A X014 (ip), vehicle: methylcellulose (MC)); 52 % of control (dose: 5.0 mg/kg/injection, schedule: Q#A X014 (ip), vehicle: methylcellulose (MC)); 18 % of control (dose: 7.5 mg/kg/injection, schedule: Q#A X014 (ip), vehicle: methylcellulose (MC)); 20 % of control under setting [1].
For `CN(C)[C@@H]1C(=O)C(C(=O)NCNC2(C(=O)O)CCCC2)=C(O)[C@@]2(O)C(=O)C3=C(O)c4c(O)cccc4[C@@](C)(O)[C@H]3C[C@@H]12`, the T/C (dose: 25.0 mg/kg/injection, schedule: Q01DX007 (ip), vehicle: saline) was 103 % of control; the T/C (dose: 50.0 mg/kg/injection, schedule: Q01DX007 (ip), vehicle: saline) was 67 % of control; the T/C (dose: 62.0 mg/kg/injection, schedule: Q01DX007 (ip), vehicle: saline) is 103 % of control; the T/C (dose: 75.0 mg/kg/injection, schedule: Q01DX007 (ip), vehicle: saline) was 41 % of control.
For `CC[C@@H](O)C[C@H]1CCC[C@@]2(C[C@@H]3OC(=O)/C=C/[C@@](C)(O)[C@@H](O)[C@H](C)[C@@H](O)[C@H](OC4CCC(N(C)C)C(C)O4)[C@@H](O)[C@](C)(O)CCCCC/C=C/[C@@H]4CC(C)(C)O[C@@]4(O)C[C@H](O2)[C@H]3C)O1` (stereo partly drawn), the T/C (dose: 0.15 mg/kg/injection, schedule: Q01DX007 (sc), vehicle: steriod suspending solution) was 95 % of control; the T/C (dose: 0.23 mg/kg/injection, schedule: Q01DX007 (sc), vehicle: steriod suspending solution) is 113 % of control; the T/C (dose: 0.34 mg/kg/injection, schedule: Q01DX007 (sc), vehicle: steriod suspending solution) was 118 % of control.
In the case of `OCC1OC(n2cnc3c(=S)nc[nH]c32)C(O)C1O` (stereo not drawn), the T/C was 51 % of control (dose: 10.7 mg/kg/injection, schedule: Q01DX007 (ip), vehicle: carboxymethylcellulose (CMC)); 61 % of control (dose: 17.04 mg/kg/injection, schedule: Q01DX007 (ip), vehicle: carboxymethylcellulose (CMC)); 63 % of control (dose: 20.0 mg/kg/injection, schedule: Q#A X014 (ip), vehicle: methylcellulose (MC)); 40 % of control and 64 % of control (dose: 21.3 mg/kg/injection, schedule: Q01DX007 (ip), vehicle: carboxymethylcellulose (CMC)); 48 % of control (dose: 28.4 mg/kg/injection, schedule: Q01DX007 (ip), vehicle: carboxymethylcellulose (CMC)); 56 % of control (dose: 37.5 mg/kg/injection, schedule: Q#A X014 (ip), vehicle: methylcellulose (MC)). Moreover, the T/C was 42 % of control and 46 % of control (dose: 42.6 mg/kg/injection, schedule: Q01DX007 (ip), vehicle: carboxymethylcellulose (CMC)); 44 % of control (dose: 62.0 mg/kg/injection, schedule: Q01DX007 (ip), vehicle: carboxymethylcellulose (CMC)); 22 % of control (dose: 75.0 mg/kg/injection, schedule: Q#A X014 (ip), vehicle: methylcellulose (MC)); 41 % of control and 44 % of control (dose: 85.2 mg/kg/injection, schedule: Q01DX007 (ip), vehicle: carboxymethylcellulose (CMC)); 20 % of control and 24 % of control (dose: 100.0 mg/kg/injection, schedule: Q#A X014 (ip), vehicle: methylcellulose (MC)); 59 % of control under setting [2]. In addition, the T/C reads like this: under setting [3], 25 % of control; (dose: 300.0 mg/kg/injection, schedule: Q01DX007 (ip), vehicle: carboxymethylcellulose (CMC)) 21 % of control; (dose: 400.0 mg/kg/injection, schedule: Q01DX007 (ip), vehicle: carboxymethylcellulose (CMC)) 19 % of control; (dose: 450.0 mg/kg/injection, schedule: Q01DX007 (ip), vehicle: carboxymethylcellulose (CMC)) 11 % of control.
In the case of `Cc1ccccn1`, the T/C (dose: 200.0 mg/kg/injection, schedule: Q01DX007 (ip), vehicle: saline) was 87 % of control and the T/C (dose: 400.0 mg/kg/injection, schedule: Q01DX007 (ip), vehicle: saline) is 151 % of control.
In the case of `C[C@]12CC[C@@H]3c4ccc(OC5CCCCO5)cc4CC[C@H]3[C@@H]1CC[C@@H]2O` (stereo partly drawn), the T/C was 55 % of control (dose: 111.0 mg/kg/injection, schedule: Q01DX007 (ip), vehicle: steriod suspending solution); 20 % of control (dose: 166.6 mg/kg/injection, schedule: Q01DX007 (ip), vehicle: steriod suspending solution); 24 % of control (dose: 250.0 mg/kg/injection, schedule: Q01DX007 (ip), vehicle: steriod suspending solution); 17 % of control (dose: 375.0 mg/kg/injection, schedule: Q01DX007 (ip), vehicle: steriod suspending solution).
Consider `C=CC(CN1CC1)OC(C)=O` (stereo not drawn), for which the T/C by setting is: (dose: 0.88 mg/kg/injection, schedule: Q01DX007 (ip), vehicle: carboxymethylcellulose (CMC)) 94 % of control; (dose: 1.25 mg/kg/injection, schedule: Q01DX007 (ip), vehicle: carboxymethylcellulose (CMC)) 68 % of control; (dose: 1.75 mg/kg/injection, schedule: Q01DX007 (ip), vehicle: carboxymethylcellulose (CMC)) 97 % of control; (dose: 2.3 mg/kg/injection, schedule: Q01DX007 (ip), vehicle: carboxymethylcellulose (CMC)) 58 % of control; (dose: 3.5 mg/kg/injection, schedule: Q01DX007 (ip), vehicle: carboxymethylcellulose (CMC)) 56 % of control; (dose: 7.0 mg/kg/injection, schedule: Q01DX007 (ip), vehicle: carboxymethylcellulose (CMC)) 50 % of control.
Take `CN(CC(=O)O)C(=N)N`: the T/C was 92 % of control (dose: 1500.0 mg/kg/injection, schedule: Q#A X014 (ip), vehicle: water) and 74 % of control (dose: 2500.0 mg/kg/injection, schedule: Q#A X014 (ip), vehicle: water).
For the compound `CC(C)(S)C(N)C(=O)O` (stereo not drawn), the T/C (dose: 500.0 mg/kg/injection, schedule: Q01DX007 (oral), vehicle: saline) is 122 % of control and the T/C (dose: 1000.0 mg/kg/injection, schedule: Q01DX007 (oral), vehicle: saline) was 118 % of control.
